Assay results as given in article PMC9120017, “Inhibition mechanism of the chloride channel TMEM16A by the pore blocker 1PBC” (Nature Communications, 2022).
pIC50: −log10 of the molar value. Where two headings read alike, the source gives them in different places.

Molecular target: T1, mouse TMEM16A mutant V599A (Mus musculus, UniProt Q8BHY3, V599A)
T1 construct: expressed in transfected cells; host or cells: HEK293T
T1 sequence (Q8BHY3 1-960 V599A): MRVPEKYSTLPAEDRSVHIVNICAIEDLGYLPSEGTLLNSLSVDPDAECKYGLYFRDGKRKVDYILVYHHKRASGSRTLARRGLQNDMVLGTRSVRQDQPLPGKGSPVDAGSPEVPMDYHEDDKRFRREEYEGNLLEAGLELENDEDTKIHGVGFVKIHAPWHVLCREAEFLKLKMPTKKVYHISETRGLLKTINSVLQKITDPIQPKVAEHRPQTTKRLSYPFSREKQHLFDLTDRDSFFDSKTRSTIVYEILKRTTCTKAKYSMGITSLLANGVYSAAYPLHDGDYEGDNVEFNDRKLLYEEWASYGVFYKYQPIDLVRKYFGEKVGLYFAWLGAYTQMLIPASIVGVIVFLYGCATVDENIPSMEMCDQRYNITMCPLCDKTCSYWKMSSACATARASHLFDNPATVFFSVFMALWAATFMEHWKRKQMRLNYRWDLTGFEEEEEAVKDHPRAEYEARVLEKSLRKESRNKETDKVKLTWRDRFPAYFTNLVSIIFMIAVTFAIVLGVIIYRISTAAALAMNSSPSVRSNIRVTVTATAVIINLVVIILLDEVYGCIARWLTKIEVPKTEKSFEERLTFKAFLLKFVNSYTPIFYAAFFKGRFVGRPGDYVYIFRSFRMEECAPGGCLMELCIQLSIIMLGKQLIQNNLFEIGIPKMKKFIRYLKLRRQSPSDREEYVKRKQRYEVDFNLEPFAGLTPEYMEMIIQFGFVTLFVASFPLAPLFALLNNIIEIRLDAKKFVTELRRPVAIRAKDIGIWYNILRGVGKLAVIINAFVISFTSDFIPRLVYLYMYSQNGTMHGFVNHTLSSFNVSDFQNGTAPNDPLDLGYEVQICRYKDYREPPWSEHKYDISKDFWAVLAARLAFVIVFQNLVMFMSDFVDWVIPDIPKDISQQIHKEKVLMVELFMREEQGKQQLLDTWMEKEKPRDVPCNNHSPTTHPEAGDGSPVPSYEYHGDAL
Assay: Inside-out patch recording of 1PBC block, mutant V599A
Format: cell-based
Details: for pIC50: 15 µM Ca2+
Method: HEK293T cells (ATCC CRL-1573) were maintained in Dulbecco’s modified Eagle’s medium (DMEM; Sigma-Aldrich) supplemented with 10 U ml^−1 penicillin, 0.1 mg ml^−1 streptomycin (Sigma-Aldrich), 2 mM L-glutamine (Sigma-Aldrich), and 10% FBS (Sigma-Aldrich) in a humidified atmosphere containing 5% CO2 at 37 °C. HEK293S GnTI^− cells (ATCC CRL-3022) were maintained in HyClone HyCell TransFx-H medium (GE Healthcare) supplemented with 10 U ml^−1 penicillin, 0.1 mg ml^−1 streptomycin, 4 mM L-glutamine, 0.15% poloxamer 188 (Sigma-Aldrich), and 1% FBS in an atmosphere containing 5% CO2 at 185 rpm at 37 °C. The ac splice variant of mouse TMEM16A (UniProt ID: Q8BHY3), mouse TMEM16B (UniProt ID: Q8CFW1), or mouse TMEM16F (UniProt ID: Q6P9J9) bearing a 3C cleavage site, a Venus YFP, a Myc tag, and a Streptavidin-binding peptide (SBP) downstream of the open reading frame in a modified pcDNA3.1 vector (Invitrogen) were used as described previously[21],[31]. Mutations were introduced using a modified QuikChange method[58] and were verified by sequencing.
HEK293T cells were transfected with 3–4 μg DNA per 6 cm Petri dish using the calcium phosphate co-precipitation method and were used within 24–96 h after transfection. Recordings were performed on inside-out patches excised from HEK293T cells expressing the construct of interest. Patch pipettes were pulled from borosilicate glass capillaries (O.D. 1.5 mm, I.D. 0.86 mm, Sutter Instrument) and were fire-polished with a microforge (Narishige) before use. Pipette resistance was typically 3–8 MΩ when filled with the recording solutions detailed below. Seal resistance was typically 4 GΩ or higher. Voltage-clamp recordings were made using Axopatch 200B, Digidata 1550, and Clampex 10.7 (Molecular Devices). Analog signals were filtered with the in-built 4-pole Bessel filter at 10 kHz and were digitized at 20 kHz. Solution exchange was achieved using a gravity-fed system through a theta glass pipette mounted on an ultra-fast piezo-driven stepper (Siskiyou). […] All recordings were performed at 20 °C.
A symmetrical ionic condition was used throughout. Stock solution with Ca^2+-EGTA contained 150 mM NaCl, 5.99 mM Ca(OH)2, 5 mM EGTA, and 10 mM HEPES at pH 7.40. Stock solution with EGTA contained 150 mM NaCl, 5 mM EGTA, and 10 mM HEPES at pH 7.40. Free Ca^2+ concentrations were adjusted by mixing the stock solutions at the required ratios calculated using the WEBMAXC program (http://web.stanford.edu/~cpatton/webmaxcS.htm). Patch pipettes were filled with the stock solution with Ca^2+-EGTA, which has a free Ca^2+ concentration of 1 mM. 1PBC (ChemBridge) stock was reconstituted in anhydrous DMSO (Sigma-Aldrich) at 100 mM and stored at −20 °C. Working solutions with 1PBC were prepared by serial dilution. Unless otherwise stated, experiments were performed at a saturating Ca^2+ concentration as shown in Supplementary Table 1 and the primary data were corrected for current rundown as described previously[21],[25].
Concentration-response relations, obtained from the ratio of the I-V plots before and after the application of the blocker, were fitted to the Hill equation,1 I/Imax=1/1+IC50/[blocker]^h where I/Imax is the normalized current responses, IC50 defines the concentration at which inhibition is at its half-maximum, and h is the Hill coefficient.

pIC50 (0 mV): 4.16
remaining activity at 3 µM (0 mV, 1PBC conc 3, read-out: relative current in 1PBC (avr)): 93.5%
remaining activity at 10 µM (0 mV, 1PBC conc 10, read-out: relative current in 1PBC (avr)): 87.7%
remaining activity at 30 µM (0 mV, 1PBC conc 30, read-out: relative current in 1PBC (avr)): 72%
remaining activity at 100 µM (0 mV, 1PBC conc 100, read-out: relative current in 1PBC (avr)): 39.4%
remaining activity at 3 µM (3 µM 1PBC, +80 mV, saturating Ca2+ (15 µM), read-out: I/Imax): 93.3%
remaining activity at 3 µM (3 µM 1PBC, -80 mV, saturating Ca2+ (15 µM), read-out: I/Imax): 94.9%
remaining activity at 10 µM (10 µM 1PBC, +80 mV, saturating Ca2+ (15 µM), read-out: I/Imax): 84%
remaining activity at 10 µM (10 µM 1PBC, -80 mV, saturating Ca2+ (15 µM), read-out: I/Imax): 91.7%
remaining activity at 30 µM (30 µM 1PBC, +80 mV, saturating Ca2+ (15 µM), read-out: I/Imax): 62.6%
remaining activity at 30 µM (30 µM 1PBC, -80 mV, saturating Ca2+ (15 µM), read-out: I/Imax): 78.1%
remaining activity at 100 µM (100 µM 1PBC, +80 mV, saturating Ca2+ (15 µM), read-out: I/Imax): 27.8%
remaining activity at 100 µM (100 µM 1PBC, -80 mV, saturating Ca2+ (15 µM), read-out: I/Imax): 50.8%
pIC50 (20 mV): 4.21
remaining activity at 3 µM (20 mV, 1PBC conc 3, read-out: relative current in 1PBC (avr)): 93.3%
remaining activity at 10 µM (20 mV, 1PBC conc 10, read-out: relative current in 1PBC (avr)): 86.6%
remaining activity at 30 µM (20 mV, 1PBC conc 30, read-out: relative current in 1PBC (avr)): 69.3%
remaining activity at 100 µM (20 mV, 1PBC conc 100, read-out: relative current in 1PBC (avr)): 36%
pIC50 (40 mV): 4.26
remaining activity at 3 µM (40 mV, 1PBC conc 3, read-out: relative current in 1PBC (avr)): 93.6%
remaining activity at 10 µM (40 mV, 1PBC conc 10, read-out: relative current in 1PBC (avr)): 86.2%
remaining activity at 30 µM (40 mV, 1PBC conc 30, read-out: relative current in 1PBC (avr)): 67.1%
remaining activity at 100 µM (40 mV, 1PBC conc 100, read-out: relative current in 1PBC (avr)): 32.9%
pIC50 (60 mV): 4.31
remaining activity at 3 µM (60 mV, 1PBC conc 3, read-out: relative current in 1PBC (avr)): 92.4%
remaining activity at 10 µM (60 mV, 1PBC conc 10, read-out: relative current in 1PBC (avr)): 84.6%
remaining activity at 30 µM (60 mV, 1PBC conc 30, read-out: relative current in 1PBC (avr)): 64.2%
remaining activity at 100 µM (60 mV, 1PBC conc 100, read-out: relative current in 1PBC (avr)): 30%
log-fold IC50 (change of mutant vs WT) (80 mV): 1.35
pIC50 (80 mV): 4.34
remaining activity at 3 µM (80 mV, 1PBC conc 3, read-out: relative current in 1PBC (avr)): 93.3%
remaining activity at 10 µM (80 mV, 1PBC conc 10, read-out: relative current in 1PBC (avr)): 84%
remaining activity at 30 µM (80 mV, 1PBC conc 30, read-out: relative current in 1PBC (avr)): 62.6%
remaining activity at 100 µM (80 mV, 1PBC conc 100, read-out: relative current in 1PBC (avr)): 27.8%
pIC50 (100 mV): 4.35
remaining activity at 3 µM (100 mV, 1PBC conc 3, read-out: relative current in 1PBC (avr)): 94.2%
remaining activity at 10 µM (100 mV, 1PBC conc 10, read-out: relative current in 1PBC (avr)): 83.7%
remaining activity at 30 µM (100 mV, 1PBC conc 30, read-out: relative current in 1PBC (avr)): 62.5%
remaining activity at 100 µM (100 mV, 1PBC conc 100, read-out: relative current in 1PBC (avr)): 26.8%
pIC50 (120 mV): 4.35
remaining activity at 3 µM (120 mV, 1PBC conc 3, read-out: relative current in 1PBC (avr)): 95.5%
remaining activity at 10 µM (120 mV, 1PBC conc 10, read-out: relative current in 1PBC (avr)): 83.7%
remaining activity at 30 µM (120 mV, 1PBC conc 30, read-out: relative current in 1PBC (avr)): 62.1%
remaining activity at 100 µM (120 mV, 1PBC conc 100, read-out: relative current in 1PBC (avr)): 27%
pIC50 (140 mV): 4.31
remaining activity at 3 µM (140 mV, 1PBC conc 3, read-out: relative current in 1PBC (avr)): 97.8%
remaining activity at 10 µM (140 mV, 1PBC conc 10, read-out: relative current in 1PBC (avr)): 86.2%
remaining activity at 30 µM (140 mV, 1PBC conc 30, read-out: relative current in 1PBC (avr)): 63.1%
remaining activity at 100 µM (140 mV, 1PBC conc 100, read-out: relative current in 1PBC (avr)): 28.2%
Structure (SMILES): N#Cc1c(C(F)(F)F)cc(O)n2c1nc1ccccc12 [1PBC]
